Assays:
Type in all cases: in vivo, Arabidopsis thaliana
[1] = tested on: phloem-specific IR-PTGS sensor; assay: Visual chlorotic phenotype of sprayed phloem-specific IR-PTGS sensor (SUC-SUL plants); conditions: for vein-centered chlorotic phenotype (IR-PTGS activity): sprayed on phloem-specific IR-PTGS sensor; for chlorotic phenotype / PTGS activity, phloem-specific reporter: 2 mM SA with 0.02% Silwet L-77, 5 days, SUC-SUL
Excerpt: A. […]
In step (b), said molecule, microorganism or extract can be applied either at seedling stage or at later developmental stages such as at rosette stage. This molecule, microorganism or extract is applied either in liquid medium in (micro) well-plates, by infiltration using a needle-less syringe or vacuum, or by spray using a concentration of surfactant that is known from people skilled in the art.
Visual observation of step (c) can be made several days, preferably 4 to 5 days, after step (b) The term “silencing” means down-regulating or antagonizing, at least partly, a targeted gene transcript.
For this purpose, they have sprayed a previously characterized phloem-specific IR-PTGS sensor (Dunoyer et al., 2005) with either (1) Salicylic acid (SA), a well-characterized phytohormone that plays a critical role in resistance against biotrophic pathogens, (2) 2,6-dichloroisonicotonic acid and benzo-(1,2,3)-thiadiazole-7-carbothioic acid S-methyl ester (BTH), a functional analog of SA that is regularly used by farmers to enhance disease resistance in crops, (3) Aliette, formulated fosetyl-Aluminium that can stimulate plant antimicrobial defense in cultivated plants but also protect them from fungal and oomycete infections through a potent and systemic fungicide activity, (4) Serenade, which is composed of formulated Bacillus subtilis (5) formulated Laminarine, a beta 1-3 glucan that mimics fungal cell wall and therefore promote natural antifungal defense responses in some cultivated plants; and have further monitored the effects of such treatments on the vein-centered chlorotic phenotype of this IR-PTGS reporter system. […] It is noteworthy that the presented molecular analyses allow us (i) to detect at which steps of the PTGS a given molecule is acting (small RNA biogenesis and/or RISC activity) (ii) to quantify the strength by which the candidate molecules is modulating RNA silencing in a given tissue that is relevant for disease management. […]

[2] = tested on: SUL transcript; assay: RT-qPCR of SUL transcript levels in SA-treated SUC-SUL leaves; conditions: 2 mM SA + 0.01% Silwet L-77, 3 days, vs Mock
Protocol: B. RT-qPCR analysis depicting SUL and CIP4 transcript levels in SUC-SUL leaves treated with either Mock (0.01% Silwet L-77 only) or with 2 mM of SA (+0.01% Silwet L-77) for 3 days.
(§1) For this purpose, they have sprayed a previously characterized phloem-specific IR-PTGS sensor (Dunoyer et al., 2005) with either (1) Salicylic acid (SA), a well-characterized phytohormone that plays a critical role in resistance against biotrophic pathogens, (2) 2,6-dichloroisonicotonic acid and benzo-(1,2,3)-thiadiazole-7-carbothioic acid S-methyl ester (BTH), a functional analog of SA that is regularly used by farmers to enhance disease resistance in crops, (3) Aliette, formulated fosetyl-Aluminium that can stimulate plant antimicrobial defense in cultivated plants but also protect them from fungal and oomycete infections through a potent and systemic fungicide activity, (4) Serenade, which is composed of formulated Bacillus subtilis (5) formulated Laminarine, a beta 1-3 glucan that mimics fungal cell wall and therefore promote natural antifungal defense responses in some cultivated plants; and have further monitored the effects of such treatments on the vein-centered chlorotic phenotype of this IR-PTGS reporter system. […]

[3] = tested on: SUL protein; assay: Western blot of SUL protein levels in SA-treated SUC-SUL leaves; conditions: 2 mM SA + 0.01% Silwet L-77, 3 days, vs Mock
Protocol: C. Western blot analyses showing SUL and CIP4 protein levels in SUC-SUL leaves treated with either Mock (0.01% Silwet L-77 only) or with 2 mM of SA (+0.01% Silwet L-77) for 3 days.
as §1

[4] = tested on: artificial siRNAs
Excerpt: These level analyses will determine (i) at which steps of the RNA silencing pathway a given molecule, microorganism or extract is acting (small RNA biogenesis, accumulation and/or activity) (ii) the intensity by which a given molecule, microorganism or extract is modulating RNA silencing. Regarding the quantification of artificial or endogenous small RNA accumulation, Low Molecular Weight (LMW) Northern blot analyses or Real Time quantitative PCR (RT-qPCR) analyses can be used. Concerning the quantification of artificial or endogenous small RNA targets, High Molecular Weight (HMW) Northern analyses or RT-PCR analyses can be used. […]

[5] = tested on: biosensor specific to xylem parenchyma cells; assay: Visual chlorosis of sprayed xylem-specific biosensors (AAP6-p::SUL-LUS, IRX3-p::SUL-LUS); conditions: 2 mM SA with 0.02% Silwet L-77, 5 days, AAP6-p::SUL-LUS and IRX3-p::SUL-LUS; listed as SA
Protocol: Picture of 5-week-old SUC-SUL, HYD-p::SUL-LUS, AAP6-p::SUL-LUS, IRX3-p::SUL-LUS or GC1-p::SUL-LUS plants treated either Mock (0.02% Silwet L-77 only) or 2 mM of SA (with 0.02% Silwet L-77) for 5 days.
To test whether the increase level of PTGS detected in SA-treated phloem-specific IR-PTGS sensor is detectable to other tissues, the inventors have sprayed different tissue-specific biosensors with the same concentration of SA. The biosensors specific to hydathodes, xylem parenchyma cells, guard cells and companion cells of phloem were sprayed with SA and the level of chlorosis was assessed 5 day later (FIG. 6). […] These observations therefore highlight the importance of using different tissue-specific biosensors to screen natural or synthetic compounds, microorganisms, macro- or micro-organism extracts that can have a PTGS inducer activity specifically in a given tissue that is relevant to manage a specific disease. On the contrary, we are anticipating that the whole series of reporters will be also exploited to identify molecules, microorganisms or extracts that can induce PTGS/immune responses in all the above tissues. Such compounds, microorganisms or extracts will have the potential to confer broad-spectrum disease resistance and to restrict growth of pathogens with different modes of entry, propagation and replication. […]

Compound	vein-centered chlorotic phenotype (IR-PTGS activity) [1]	chlorotic phenotype / PTGS activity, phloem-specific reporter [1]	chlorotic phenotype / PTGS activity, phloem-specific reporter ([1]; listed as SA)	SUL transcript accumulation [2]	SUL protein levels [3]	accumulation of artificial siRNAs [4]	chlorotic phenotype / PTGS activity, xylem parenchyma reporters [5]
O=C(O)c1cc(Cl)nc(Cl)c1 [2,6-dichloroisonicotonic acid]	significant enhanced chlorotic phenotypes	–	–	–	–	–	–
CSC(=O)c1cccc2nnsc12 [BTH, benzo-(1,2,3)-thiadiazole-7-carbothioic acid S-methyl ester]	significant enhanced chlorotic phenotypes	–	–	–	–	–	–
O=C(O)c1ccccc1O [Salicylic acid]	significant enhanced chlorotic phenotypes	promotes PTGS activity	significant enhanced chlorotic phenotype	mild reduction	significant decrease	no significant effect	not in other silencing reporter tested

Source: patent US10550400B2, “Methods to monitor post-translational gene silencing activity in plant tissues/cell types relevant for pathogen entry, propagation or replication” (Paris Sciences et Lettres—Quartier Latin, priority 2014, dated 2020)
